Laboratory results from patent publication US10632171B2, “Melanocortin receptor-specific peptides” (Palatin Technologies, Inc., priority 2009, dated 2020).
Like-named read-outs stand apart in the source and are kept apart here. Peptide text beside a SMILES is read from it.

Key:
[1] = target: hMC4-R (Homo sapiens (Human), UniProt P32245); test: Assay for agonist activity (cAMP accumulation in HEK-293 cells); type: cell-based; conditions: for Emax: HEK293; for functional classification at MC4-R: agonist = intrinsic activity 70% or higher, partial agonist 10-70%
Method: Accumulation of intracellular cAMP was examined as a measure of the ability of the peptides of the present invention to elicit a functional response in HEK-293 cells that express MC4-R. Confluent HEK-293 cells that express recombinant hMC4-R were detached from culture plates by incubation in enzyme-free cell dissociation buffer. Dispersed cells were suspended in Earle's Balanced Salt Solution containing 10 mM HEPES (pH 7.5), 1 mM MgCl2, 1 mM glutamine, 0.5% albumin and 0.3 mM 3-isobutyl-1-methyl-xanthine (IBMX), a phosphodiesterase inhibitor. […] Cells were exposed for 15 minutes at 37° C. to peptides of the present invention dissolved in DMSO (final DMSO concentration of 1%) at a concentration range of 0.05-5000 nM in a total assay volume of 200 μL. […] Data analysis was performed by nonlinear regression analysis with Graph-Pad Prism® software. The maximum efficacies of the test peptides of the present invention were compared to that achieved by the reference melanocortin agonist NDP-αMSH.

[2] = target: hMC1-R (Homo sapiens (Human), UniProt Q01726); test: Functional assay for agonist activity at hMC1-R; type: cell-based; conditions: intrinsic activity
[3] = Food intake and body weight change in rats; type: in vivo, rat; conditions: for decrease in food consumption compared to control: rats
Method: Change in food intake and body weight was evaluated for selected peptides administered by intravenous (IV) or subcutaneous injection routes. Male Sprague-Dawley rats were obtained from Hilltop Lab Animals, Inc. (Scottsdale, Pa.) or other vendors. Animals were individually housed in conventional polystyrene hanging cages and maintained on a controlled 12 hour on/off light cycle. Water and pelleted food was provided ad libitum. The rats were dosed IV with vehicle or selected peptides (0.3 to 1.0 mg/kg), or dosed subcutaneously with vehicle or selected peptides (doses up to 30 mg/kg). […] The changes in body weight and food intake for the 48 hour and 72 hour periods after dosing can also be measured to determine reversal of changes in body weight and food intake effects back to baseline levels.

[4] = Induction of penile erection in male rats; type: in vivo, rat; conditions: subcutaneous, 1, 3 or 10 mg/kg
Method: The ability of peptides of the present invention to induce penile erection (PE) in male rats were evaluated with selected peptides. Male Sprague-Dawley rats weighing 250-300 g were kept on a 12 hour on/off light cycle with food and water ad libitum. All behavioral studies were performed between 9 a.m. and 4 p.m. […] Rats are observed for one hour, and the number of yawns, grooming bouts and PEs are recorded in 10-minute bins.

[5] = NDP-α-MSH is 100%, read-out: intrinsic activity at MC4-R
[6] = intrinsic activity, read-out: hMC4-R Emax (%)
[7] = rat feeding study, 0.3 and 1 mg/kg

hMC1-R, sequence (Q01726 whole entry): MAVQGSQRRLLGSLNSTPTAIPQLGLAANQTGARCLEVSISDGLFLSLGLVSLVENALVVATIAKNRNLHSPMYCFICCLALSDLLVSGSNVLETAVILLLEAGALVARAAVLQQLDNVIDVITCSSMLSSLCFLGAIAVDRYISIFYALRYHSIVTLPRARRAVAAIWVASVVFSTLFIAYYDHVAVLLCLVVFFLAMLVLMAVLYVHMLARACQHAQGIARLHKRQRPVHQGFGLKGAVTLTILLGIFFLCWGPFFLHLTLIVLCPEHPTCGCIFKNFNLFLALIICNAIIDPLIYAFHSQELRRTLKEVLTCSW
hMC4-R, sequence (P32245 whole entry): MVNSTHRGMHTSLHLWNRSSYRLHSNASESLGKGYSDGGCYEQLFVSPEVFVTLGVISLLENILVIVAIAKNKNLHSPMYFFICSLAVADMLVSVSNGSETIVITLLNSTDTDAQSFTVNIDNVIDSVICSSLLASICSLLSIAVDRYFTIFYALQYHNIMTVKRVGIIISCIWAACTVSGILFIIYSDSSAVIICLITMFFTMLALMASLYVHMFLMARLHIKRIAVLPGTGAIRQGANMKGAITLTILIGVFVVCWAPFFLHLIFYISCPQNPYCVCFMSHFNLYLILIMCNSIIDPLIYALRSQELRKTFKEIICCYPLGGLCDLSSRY

SMILES | Emax [1, 5] [%] | functional classification at MC4-R [1] | Emax [2] [%] | Emax [1, 6] [%] | further results
CC(=O)N[C@@H](CCCNC(=N)N)C(=O)N[C@H]1CCNC(=O)CCC[C@@H](C(N)=O)NC(=O)[C@H](Cc2c[nH]c3ccccc23)NC(=O)[C@H](CCCNC(=N)N)NC(=O)[C@@H](Cc2ccccc2)NC(=O)[C@H](Cc2c[nH]cn2)NC1=O [compound 128, Ac-Arg-cyclo(Dab-His- D-Phe-Arg-Trp-hGlu)- NH2] | 95 | agonist | – | – | –
CC(=O)N[C@@H](CCCNC(=N)N)C(=O)N[C@H]1CCCNC(=O)CC[C@@H](C(N)=O)NC(=O)[C@H](Cc2c[nH]c3ccccc23)NC(=O)[C@H](CCCNC(=N)N)NC(=O)[C@@H](Cc2ccccc2)NC(=O)[C@H](CC(N)=O)NC1=O [compound 154, Ac-Arg-cyclo(Orn-Asn- D-Phe-Arg-Trp-Glu)- NH2] | – | – | 87 | – | –
CC(=O)N[C@@H](CCCNC(=N)N)C(=O)N[C@H]1CCCCNC(=O)C[C@@H](C(N)=O)NC(=O)[C@H](Cc2ccc3ccccc3c2)NC(=O)[C@H](CCCNC(=N)N)NC(=O)[C@@H](Cc2ccccc2)NC(=O)[C@H](CC(N)=O)NC1=O [compound 162, Ac-Arg-cyclo(Lys-Asn- D-Phe-Arg-Nal 2-Asp)- NH2] (HELM PEPTIDE1{[ac].R.K.N.[dF].R.[O=C([C@H](Cc1ccc2ccccc2c1)N[*:1])[*:2]].D.[am]}$PEPTIDE1,PEPTIDE1,3:R3-8:R3$$$V2.0) | – | – | 89 | 82 | –
CC(=O)N[C@@H](CCCNC(=N)N)C(=O)N[C@H]1CCCC(=O)NCC[C@@H](C(N)=O)NC(=O)[C@H](Cc2c[nH]c3ccccc23)NC(=O)[C@H](CCCNC(=N)N)NC(=O)[C@@H](Cc2ccccc2)NC(=O)[C@H](Cc2c[nH]cn2)NC1=O [compound 126, Ac-Arg-cyclo(hGlu-His- D-Phe-Arg-Trp-Dab)- NH2] | 101 | agonist | – | – | –
CC(=O)N[C@@H](CCCNC(=N)N)C(=O)N[C@H]1CC(=O)NCCCC[C@@H](C(N)=O)NC(=O)[C@H](Cc2c[nH]c3ccccc23)NC(=O)[C@H](CCCNC(=N)N)NC(=O)[C@@H](Cc2ccccc2)NC(=O)[C@H](C(C)C)NC1=O [Peptide No. 16, Ac-Arg-cyclo(Asp-Val- D-Phe-Arg-Trp-Lys)- NH2] | 42 | partial agonist | – | – | food intake [3, 7]: reduce food intake; rate of change in body weight [3, 7]: decrease the rate of change in body weight; decrease in food consumption compared to control ([3]; 0.3 mg/kg, 0-2 and 0-4 hour periods): statistically significant; decrease in food consumption compared to control ([3]; 1 mg/kg, 0-2, 0-4 and 0-20 hour periods): statistically significant
CC(=O)N[C@@H](CCCNC(=N)N)C(=O)N[C@H]1CCCNC(=O)CC[C@@H](C(N)=O)NC(=O)[C@H](Cc2c[nH]c3ccccc23)NC(=O)[C@H](CCCNC(=N)N)NC(=O)[C@@H](Cc2ccccc2)NC(=O)[C@H](CCC(N)=O)NC1=O [compound 150, Ac-Arg-cyclo(Orn-Gln- D-Phe-Arg-Trp-Glu)- NH2] | – | – | 89 | – | –
CC(=O)N[C@H](CCCNC(=N)N)C(=O)N[C@H]1CCCNC(=O)CC[C@@H](C(N)=O)NC(=O)[C@H](Cc2c[nH]c3ccccc23)NC(=O)[C@H](CCCNC(=N)N)NC(=O)[C@@H](Cc2ccccc2)NC(=O)[C@H](CCC(N)=O)NC1=O [compound 152, Ac-D-Arg-cyclo(Orn- Gln-D-Phe-Arg-Trp- Glu)-NH2] | – | – | 85 | 89 | –
CC(=O)N[C@@H](CCCNC(=N)N)C(=O)N[C@H]1CCCCNC(=O)C[C@@H](C(N)=O)NC(=O)[C@H](Cc2c[nH]c3ccccc23)NC(=O)[C@H](CCCNC(=N)N)NC(=O)[C@@H](Cc2ccccc2)NC(=O)[C@H](CC(N)=O)NC1=O [compound 155, Ac-Arg-cyclo(Lys-Asn- D-Phe-Arg-Trp-Asp)- NH2] (HELM PEPTIDE1{[ac].R.K.N.[dF].R.W.D.[am]}$PEPTIDE1,PEPTIDE1,3:R3-8:R3$$$V2.0) | – | – | 91 | 97 | –
CC(=O)N[C@@H](CCCNC(=N)N)C(=O)N[C@H]1CCCC(=O)NCC[C@@H](C(N)=O)NC(=O)[C@H](Cc2c[nH]c3ccccc23)NC(=O)[C@H](CCCNC(=N)N)NC(=O)[C@@H](Cc2ccccc2)NC(=O)[C@H](CC(N)=O)NC1=O [compound 160, Ac-Arg-cyclo(hGlu-Asn- D-Phe-Arg-Trp-Dab)- NH2] (HELM PEPTIDE1{[ac].R.[O=C([C@H](CCCC(=O)[*:3])N[*:1])[*:2]].N.[dF].R.W.[Dab].[am]}$PEPTIDE1,PEPTIDE1,3:R3-8:R3$$$V2.0) | – | – | 95 | 98 | –
CC(=O)N[C@@H](CCCNC(=N)N)C(=O)N[C@H]1CCNC(=O)CCC[C@@H](C(N)=O)NC(=O)[C@H](Cc2c[nH]c3ccccc23)NC(=O)[C@H](CCCNC(=N)N)NC(=O)[C@@H](Cc2ccccc2)NC(=O)[C@H](CCN)NC1=O [compound 129, Ac-Arg-cyclo(Dab-Dab- D-Phe-Arg-Trp-hGlu)- NH2] | 96 | agonist | – | – | –
CC(=O)N[C@@H](CCCNC(=N)N)C(=O)N[C@H]1CC(=O)NCCCC[C@@H](C(N)=O)NC(=O)[C@H](Cc2c[nH]c3ccccc23)NC(=O)[C@H](CCCNC(=N)N)NC(=O)[C@@H](Cc2ccccc2)NC(=O)[C@H](CCC(N)=O)NC1=O [Peptide No. 32, Ac-Arg-cyclo(Asp-Gln- D-Phe-Arg-Trp-Lys)- NH2] | 98 | agonist | – | – | observed spontaneous erections [4]: increase in observed spontaneous erections
CC(=O)N[C@H](CCCNC(=N)N)C(=O)N[C@H]1CCCNC(=O)CC[C@@H](C(N)=O)NC(=O)[C@H](Cc2c[nH]c3ccccc23)NC(=O)[C@H](CCCNC(=N)N)NC(=O)[C@@H](Cc2ccccc2)NC(=O)[C@H](CC(N)=O)NC1=O [compound 156, Ac-D-Arg-cyclo(Orn- Asn-D-Phe-Arg-Trp- Glu)-NH2] | – | – | 81 | – | –
CC(=O)N[C@@H](CCCNC(=N)N)C(=O)N[C@H]1CCNC(=O)CCC[C@@H](C(N)=O)NC(=O)[C@H](Cc2c[nH]c3ccccc23)NC(=O)[C@H](CCCNC(=N)N)NC(=O)[C@@H](Cc2ccccc2)NC(=O)[C@H](CCC(N)=O)NC1=O [compound 159, Ac-Arg-cyclo(Dab-Gln- D-Phe-Arg-Trp-hGlu)- NH2] | – | – | 98 | 99 | –
CC(=O)N[C@@H](CCCNC(=N)N)C(=O)N[C@H]1CCCC(=O)NCC[C@@H](C(N)=O)NC(=O)[C@H](Cc2c[nH]c3ccccc23)NC(=O)[C@H](CCCNC(=N)N)NC(=O)[C@@H](Cc2ccccc2)NC(=O)[C@H](CCN)NC1=O [compound 127, Ac-Arg-cyclo(hGlu-Dab- D-Phe-Arg-Trp-Dab)- NH2] | 98 | agonist | – | – | –
CC(=O)N[C@H](CCCNC(=N)N)C(=O)N[C@H]1CC(=O)NCCCC[C@@H](C(N)=O)NC(=O)[C@H](Cc2c[nH]c3ccccc23)NC(=O)[C@H](CCCNC(=N)N)NC(=O)[C@@H](Cc2ccccc2)NC(=O)[C@H](CCC(N)=O)NC1=O [compound 71, Ac-D-Arg-cyclo(Asp- Gln-D-Phe-Arg-Trp- Lys)-NH2] | – | – | 88 | 89 | –
CC(=O)N[C@@H](CCCNC(=N)N)C(=O)N[C@H]1CCC(=O)NCCC[C@@H](C(N)=O)NC(=O)[C@H](Cc2c[nH]c3ccccc23)NC(=O)[C@H](CCCNC(=N)N)NC(=O)[C@@H](Cc2ccccc2)NC(=O)[C@H](CC(N)=O)NC1=O [compound 161, Ac-Arg-cyclo/(Glu-Asn- D-Phe-Arg-Trp-Orn)- NH2] | – | – | 85 | 91 | –
